Assay [1] has as its system wildtype Wnt signaling cascade. As to the kind of experiment: HEK293 TOP assay (Super TopFlash luciferase reporter, Wnt-3a stimulated). The class given is cell-based. The settings on record: Homo sapiens, HEK293, 16 h, HEK293 TOP reporter cells, Wnt3a at EC50, 16 hours. The text has this:
7.1 Measurement of the Inhibitory Activity of Selected Compounds on the Wildtype Wnt Signaling Cascade: HEK293 TOP/FOP Assay
In order to discover and characterize small molecules which inhibit the wildtype Wnt pathway, a cellular reporter assay was employed. The corresponding assay cell was generated by transfection of the mammalian cell line HEK293 (ATCC, #CRL-1573) with the Super TopFlash vector (Morin, Science 275, 1997, 1787-1790; Molenaar et al., Cell 86 (3), 1996, 391-399). The HEK293 cell line is cultivated at 37° C. and 5% CO2 in DMEM (Life Technologies, #41965-039), supplemented with 2 mM glutamine, 20 mM HEPES, 1.4 mM pyruvate, 0.15% Na-bicarbonate and 10% foetal bovine serum (GIBCO, #10270). Stable transfectants were generated by selection with 300 μg/ml Hygromycin.
(§1) In preparation of the assay, the two cell lines were plated 24 h before beginning the test at 10000 cells per well in a 384 micro titre plate (MTP) in 30 μl growth medium. […] The recombinant human Wnt-3a was thereby applied between 2500 and 5 ng/ml in two-fold dilution steps.
(§2) Selective inhibitory activity for small molecules on the wildtype Wnt pathway was determined after parallel incubation of both (TOP and FOP) HEK293 reporter cell lines with a compound dilution series from 50 μM to 15 nM in steps of 3.16-fold dilutions in CAFTY buffer (130 mM sodium chloride, 5 mM potassium chloride, 20 mM HEPES, 1 mM magnesium chloride, 5 mM sodium bicarbonate, pH 7.4) containing 2 mM Ca^2+ and 0.01% BSA.
(§3) The compounds were thereby serially prediluted in 100% DMSO and thereafter 50 fold into the CAFTY compound dilution buffer (described above).

The test system of assay [2] is HEK293 cells cotransfected with the FOP control vector. As to the kind of experiment: HEK293 FOP assay (control reporter with non-functional TCF elements). It counts as cell-based. The settings on record: Homo sapiens, 16 hours. Here is the method:
In a parallel approach, HEK293 cells were cotransfected with the FOP control vector and pcDNA3. The FOP vector is identical to the TOP construct, but it contains instead of functional TCF elements a randomized, non-functional sequence. For this transfection a stable transfected cell line was generated as well, based on selection with Geneticin (1 mg/ml).
as §1, §2, §3

Assay [3] concerns the target T1, TNKS2 (Homo sapiens, UniProt Q9H2K2).
T1 construct: purchased BPS Bioscience, San Diego, USA 80572 (TNKS2 Histone Ribosylation Assay Kit)
T1 sequence (Q9H2K2 1-1166): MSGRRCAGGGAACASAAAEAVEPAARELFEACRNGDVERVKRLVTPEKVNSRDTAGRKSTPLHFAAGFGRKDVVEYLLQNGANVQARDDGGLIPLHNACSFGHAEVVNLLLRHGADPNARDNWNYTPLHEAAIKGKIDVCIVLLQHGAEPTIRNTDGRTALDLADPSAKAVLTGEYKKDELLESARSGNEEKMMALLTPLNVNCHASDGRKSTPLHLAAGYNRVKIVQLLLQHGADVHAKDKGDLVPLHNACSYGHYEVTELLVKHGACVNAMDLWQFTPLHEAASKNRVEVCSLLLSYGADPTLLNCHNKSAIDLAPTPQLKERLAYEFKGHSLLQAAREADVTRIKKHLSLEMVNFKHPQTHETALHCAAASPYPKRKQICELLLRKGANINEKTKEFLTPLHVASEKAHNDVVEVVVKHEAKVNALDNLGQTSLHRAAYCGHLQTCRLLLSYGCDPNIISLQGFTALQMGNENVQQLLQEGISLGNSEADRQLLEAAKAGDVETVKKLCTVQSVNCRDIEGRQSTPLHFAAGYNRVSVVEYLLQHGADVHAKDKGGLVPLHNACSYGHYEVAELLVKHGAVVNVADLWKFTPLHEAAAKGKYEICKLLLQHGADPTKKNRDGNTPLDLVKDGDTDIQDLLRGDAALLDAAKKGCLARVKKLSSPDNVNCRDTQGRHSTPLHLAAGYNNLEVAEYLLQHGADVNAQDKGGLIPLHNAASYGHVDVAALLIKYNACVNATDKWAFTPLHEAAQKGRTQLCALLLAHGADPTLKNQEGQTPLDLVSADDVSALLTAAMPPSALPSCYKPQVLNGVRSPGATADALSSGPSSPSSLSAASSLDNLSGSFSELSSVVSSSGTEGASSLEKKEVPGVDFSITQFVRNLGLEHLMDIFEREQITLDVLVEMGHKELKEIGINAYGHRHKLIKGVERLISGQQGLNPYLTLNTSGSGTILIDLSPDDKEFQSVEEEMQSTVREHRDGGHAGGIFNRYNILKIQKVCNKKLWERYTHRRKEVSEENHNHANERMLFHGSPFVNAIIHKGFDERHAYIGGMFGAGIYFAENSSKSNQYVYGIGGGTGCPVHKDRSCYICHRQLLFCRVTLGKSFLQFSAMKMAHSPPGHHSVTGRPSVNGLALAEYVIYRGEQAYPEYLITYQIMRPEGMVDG
Put plainly: TNKS2 Assay B (auto-parsylation, [3H]-NAD+ SPA). The class given is biochemical. The settings on record: 6 nM TNKS2, auto-parsylation, over night at room temperature. Here is the method:
The potency of selected compounds according to the invention was assessed applying a modified in vitro inhibition assay. Here, the TNKS2 catalyzed NAD^+-dependent ribosylation of the enzyme itself (auto-parsylation) was detected using [^3H]-NAD^+ as substrate and applying the scintillation proximity assay (SPA) method to detect tritium-labeled, parsylated TNKS2. The intensity of the readout signal is proportional to the incorporated [^3H]-NAD^+. Inhibition of TNKS2 leads to a decreased incorporation of [^3H]-NAD^+ and consequently to a lower readout signal intensity. The concentration of a test compound which inhibits the enzyme activity by 50% (corresponds to half of the normed readout signal intensity) is reported as IC50.
Protocol Auto-Parsylation Assay
The assay was conducted in a 96 well MTP format with the identical TNKS2 enzyme sample and NAD^+ sample as in the histone ribosylation assay with the following modifications: TNKS2 enzyme sample was diluted with a modified assay buffer (50 mM MES pH 7.0, 1 mM DTT, 0.01% Triton X-100) to a final concentration of 6 nM TNKS2 and 10×NAD^+ solution was diluted with the modified assay buffer (s. above) to a final 0.445×NAD^+ solution doped with 100 Bq/μl [^3H]-NAD^+[Catalog #NET443H050UC, Perkin Elmer, Waltham, Mass., USA]. Substrate solution (10 μl) was incubated with different test compound concentrations (2.5 μl in 10% DMSO in modified assay buffer) or control (2.5 μl 10% DMSO in modified assay buffer only) and enzyme (10 μl) over night at room temperature. Incorporated tritium was measured after addition of 50 ul SPA beads (1 mg/ml) [Catalog #RPNQ0095 20 mg/ml, Perkin Elmer, Waltham, Mass., USA; diluted 1:10 with Dulbecco's phosphate buffered saline, PBS Catalog #D8537, Sigma-Aldrich, Steinheim, Germany] and detection of the photon emission with a beta count plate reader [Wallac MicroBeta®, Perkin Elmer, Waltham, Mass., USA].

A word on the IC50: it is the concentration needed to halve the response being measured.

`O=C(N[C@H]1CC[C@@]2(CCCN(c3cc(F)c(F)cc3Cl)C2=O)CC1)c1cnc2cccnn12` [Example 314, N-[(trans)-2-(2-chloro-4,5-difluorophenyl)-1-oxo-2-azaspiro[5.5]undec-9-yl]imidazo[1,2-b]pyridazine-3-carboxamide]: the figures for the IC50 in assay [1], in assay [2] and in assay [3] were 6.3 nM, no less than 500 nM and 22 nM, respectively.

Regarding `O=C(N[C@H]1CC[C@@]2(CCN(c3c(F)cc(F)cc3Cl)C2=O)CC1)c1cnn2cccnc12` [Example 244, N-[(trans)-2-(2-chloro-4,6-difluorophenyl)-1-oxo-2-azaspiro[4.5]dec-8-yl]pyrazolo[1,5-a]pyrimidine-3-carboxamide], the IC50 in assay [1] was 3.7 nM; in assay [2], no less than 500 nM; in assay [3] it was 6.4 nM.

In the case of `COCc1cc(C)n2ncc(C(=O)N[C@H]3CC[C@@]4(CCN(c5ccc(F)cc5Cl)C4=O)CC3)c2n1` [Example 220, N-[(trans)-2-(2-chloro-4-fluorophenyl)-1-oxo-2-azaspiro[4.5]dec-8-yl]-5-(methoxymethyl)-7-methylpyrazolo[1,5-a]pyrimidine-3-carboxamide], the half-inhibitory concentration (IC50) in assay [1] is 2.6 nM; in assay [2], 38000 nM; in assay [3] it was 10 nM.

Take `Cn1nc(C(=O)N[C@H]2CC[C@@]3(CCN(c4ccc(F)cc4Cl)C3=O)CC2)c2ccccc21` [Example 247, N-[(trans)-2-(2-chloro-4-fluorophenyl)-1-oxo-2-azaspiro[4.5]dec-8-yl]-1-methyl-1H-indazole-3-carboxamide]: the figures for the IC50 in assay [1], in assay [2] and in assay [3] were 490 nM, 13000 nM and 6000 nM, respectively.

As for `O=C(N[C@H]1CC[C@H](C(=O)Nc2ccc(F)cc2Cl)CC1)c1n[nH]c2ccccc12` [Example 253, N-{trans-4-[(2-chloro-4-fluorophenyl)carbamoyl]cyclohexyl}-1H-indazole-3-carboxamide], the IC50 in assay [1] is 20000 nM; in assay [2] it was 19000 nM; in assay [3], greater than 10000 nM.

Consider `O=C(N[C@H]1CC[C@@]2(CCN(c3cc(F)cc(F)c3)C2=O)CC1)c1cnn2cccnc12` [Example 245, N-[(trans)-2-(3,5-difluorophenyl)-1-oxo-2-azaspiro[4.5]dec-8-yl]pyrazolo[1,5-a]pyrimidine-3-carboxamide], for which the IC50 in assay [1] is 100 nM; in assay [2] it was no less than 50000 nM; in assay [3] it was 720 nM.

Consider `Cn1nc(C(=O)N[C@H]2CC[C@H](C(=O)Nc3ccc(F)cc3Cl)CC2)c2ccccc21` [Example 249, N-{trans-4-[(2-chloro-4-fluorophenyl)carbamoyl]cyclohexyl}-1-methyl-1H-indazole-3-carboxamide], for which the IC50 in assay [1] is 14000 nM; in assay [2] it was no less than 50000 nM; in assay [3], greater than 10000 nM.

For the compound `O=C(N[C@H]1CC[C@@]2(CCN(c3ccc(F)cc3Cl)C2=O)CC1)c1[nH]cnc1C(=O)N1CC(OC(F)F)C1` [Example 193, N-[(trans)-2-(2-chloro-4-fluorophenyl)-1-oxo-2-azaspiro[4.5]dec-8-yl]-4-{[3-(difluoromethoxy)azetidin-1-yl]carbonyl}-1H-imidazole-5-carboxamide], the IC50 in assay [1] was found to be 0.6 nM; in assay [2], 16000 nM; in assay [3], 5 nM.

Turning to `O=C(N[C@H]1CC[C@@]2(CCN(c3ccc(F)cc3Cl)C2=O)CC1)c1cn(CCO)c2cccnc12` [Example 344, N-[(trans)-2-(2-chloro-4-fluorophenyl)-1-oxo-2-azaspiro[4.5]dec-8-yl]-1-(2-hydroxyethyl)-1H-pyrrolo[3,2-b]pyridine-3-carboxamide], the IC50 in assay [1] was 4 nM; in assay [2] it was no less than 50000 nM; in assay [3], 21 nM.

Regarding `Cc1cc(C)n2ncc(C(=O)N[C@H]3CC[C@]4(CCN(c5ccc(F)cc5Cl)C4=O)CC3)c2n1` [Example 207, N-[(cis)-2-(2-chloro-4-fluorophenyl)-1-oxo-2-azaspiro[4.5]dec-8-yl]-5,7-dimethylpyrazolo[1,5-a]pyrimidine-3-carboxamide], the IC50 in assay [1] was 3500 nM; in assay [2], no less than 50000 nM; in assay [3], greater than 10000 nM.

Take `O=C(N[C@H]1CC[C@@]2(CCCN(c3cc(F)c(F)cc3Cl)C2=O)CC1)c1cnn2cccnc12` [Example 313, N-[(trans)-2-(2-chloro-4,5-difluorophenyl)-1-oxo-2-azaspiro[5.5]undec-9-yl]pyrazolo[1,5-a]pyrimidine-3-carboxamide]: the IC50 is 2.7 nM in assay [1], no less than 500 nM in assay [2] and 10 nM in assay [3].

As for `Cc1cc(C)n2ncc(C(=O)N[C@H]3CC[C@@]4(CCN(c5ccccc5)C4=O)CC3)c2n1` [Example 239, 5,7-dimethyl-N-[(trans)-1-oxo-2-phenyl-2-azaspiro[4.5]dec-8-yl]pyrazolo[1,5-a]pyrimidine-3-carboxamide], the IC50 in assay [1] is 73 nM; in assay [2], no less than 500 nM; in assay [3] it was 570 nM.

Regarding `Cc1c(C(C)N(C)C)cnc2c(C(=O)N[C@H]3CC[C@@]4(CCN(c5ccc(F)cc5Cl)C4=O)CC3)cnn12` (mixture of isomers) [Example 358, N-[(trans)-2-(2-chloro-4-fluorophenyl)-1-oxo-2-azaspiro[4.5]dec-8-yl]-6-[1-(dimethylamino)ethyl]-7-methylpyrazolo[1,5-a]pyrimidine-3-carboxamide (racemate)], the concentration for half-maximal inhibition (IC50) in assay [1] is 5.7 nM; in assay [2], no less than 50000 nM; in assay [3], 41 nM.

For the origin of these results see patent US20180148418A1, “AMIDO-SUBSTITUTED CYCLOHEXANE DERIVATIVES” (Bayer Pharma Aktiengesellschaft, priority 2015, published 2018).
